System: ST2 cells, murine bone marrow-derived stromal cells
Experiment: Osteoblast differentiation test (ALP activity)
Type: cell-based
Conditions: Mus musculus, ST-2, 96 h, at 0.1 μg/mL, control group (0.1% DMSO) = 100%, four days of culturing, read-out: alkaline phosphatase activity
Protocol: ST2 cells, murine bone marrow-derived stromal cells, (obtained from RIKEN) were used.
In this test, α-MEM media (obtained from GIBCO BRL Cat. No. 10370-021) containing 10% (v/v) of inactivated calf serum (obtained from Hyclone Laboratories, Inc.) and 1% (v/v) of Penicillin-Streptomycin Liquid (obtained from GIBCO BRL Cat. No. 15140-122) (hereinbelow, abbreviated as 10%-FBS-αMEM) were used. In this test, all culturing was performed in a CO2 incubator (37° C., 95% humidity, 5% CO2).
The aforementioned cells were detached with 2 mL of a 0.25% trypsin solution (obtained from GIBCO BRL Cat. No. 15050-065) and dispersed in 10 mL of 10%-FBS-αMEM. Subsequently, the cells were collected by centrifugation (25° C., 800 rpm, five minutes). Then, a cell suspension containing 40000 of the cells/mL of 10%-FBS-αMEM was prepared. The cell suspension was then dispensed into 96-well plates (the product of Falcon), 100 μL per well, at a density of 4000 cells/well, followed by culturing for 24 hours. To the wells, except for the below-described well containing a control group, the compound was dispensed at final concentrations of 0.01, 0.03, 0.1, and 0.3 μg/ml. To the well of a control group, DMSO was dispensed at a final concentration of 0.1% (v/v). After four days of culturing, the activity of alkaline phosphatase (ALP) was measured in each group.
The measurement of ALP activity was performed as follows. That is, the medium in each well of the culture plates was completely removed. Each well was then washed by dispensing 100 μL of Dulbecco's phosphate buffer (obtained from GIBCO BRL Cat. No. 14190-144) and then removing it. A cell lysate solution containing 10 mM MgCl2 and 2% (v/v) TritonX-100 (Sigma) was prepared and dispensed at 50 μL/well, followed by stirring at room temperature for five minutes. An ALP substrate solution containing 50 mM diethanolamine (Wako Pure Chemical Industries, Ltd., Cat. No. 099-03112) and 20 mM p-nitrophenyl phosphate (Wako Pure Chemical Industries, Ltd., Cat. No. 147-02343) was prepared and dispensed at 50 μL/well, and the plates were left to stand at room temperature for 10 minutes. Subsequently, absorbance was measured by a microplate reader (Bio-Rad Laboratories, Inc.). Setting the measurement value of the control group of each plate at 100%, alkaline phosphatase activity (increase (%)) in the test compound-addition group was calculated, which was assessed as the degree of osteoblast differentiation.

Cn1ccc(-c2ccn3c(-c4ccc(OCCO)cc4)cnc3c2)c1 [Example 67] gave an activity at 0.1 µg/mL of at least 200%.

CC(=O)N1CC=C(c2ccn3c(-c4ccc(OCCOC5CCOCC5)cc4)cnc3c2)CC1 [Example 68] showed an activity at 0.1 µg/mL of at least 200%.

N#Cc1ccc2ncc(-c3ccc(OCCO)cc3)n2c1 [Example 69] was tested, and the activity at 0.1 µg/mL was at least 200%.

Compound OCCOc1ccc(-c2cnc3cc(N4CCOCC4)ccn23)cc1 [Example 70] has an activity at 0.1 µg/mL of at least 200%.

Compound OCCOc1ccc(-c2cnc3ccc(-c4ccncc4)cn23)cc1 [Example 71] has an activity at 0.1 µg/mL of at least 200%.

OCCOc1ccc(-c2cnc3cc(-c4ccncc4)ccn23)cc1 [Example 72] showed an activity at 0.1 µg/mL of at least 200%.

c1cc(-c2ccn3c(-c4ccc(OCCOC5CCOCC5)cc4)cnc3c2)ccn1 [Example 74] gave an activity at 0.1 µg/mL of at least 200%.

With N#Cc1ccn2c(-c3ccc(OCCO)cc3)cnc2c1 [Example 75] the activity at 0.1 µg/mL was at least 200%.

OCCOC1CCN(c2cnc3cc(-c4ccncc4)ccn23)CC1 [Example 76] showed an activity at 0.1 µg/mL of at least 200%.

Work on CC(=O)N1CC=C(c2ccn3c(N4CCC(OCCOC5CCOCC5)CC4)cnc3c2)CC1 [Example 77] yielded an activity at 0.1 µg/mL of at least 200%.

Clc1ccn2c(-c3ccc(OCCOC4CCOCC4)cc3)cnc2c1 [Example 78] was tested, and the activity at 0.1 µg/mL was at least 200%.

c1ccn2c(N3CCC(OCCOC4CCOCC4)CC3)cnc2c1 [Example 79] gave an activity at 0.1 µg/mL of at least 200%.

In the case of Fc1ccc2ncc(-c3ccc(OCCOCC4CCOCC4)cc3)n2c1 [Example 80], the activity at 0.1 µg/mL is reported as at least 200%.

COCCOCCOc1ccc(-c2cnc3ccc(F)cn23)cc1 [Example 81] gave an activity at 0.1 µg/mL of at least 200%.

Fc1ccc2ncc(-c3ccc(OCCOCCOC4CCOCC4)cc3)n2c1 [Example 82] gave an activity at 0.1 µg/mL of at least 200%.

With COC1COCC1OCCOc1ccc(-c2cnc3ccc(F)cn23)cc1 (stereo not shown) [Example 84] the activity at 0.1 µg/mL was at least 200%.

In the case of OC1COCC1OCCOc1ccc(-c2cnc3ccc(F)cn23)cc1 (stereo not shown) [Example 86], the activity at 0.1 µg/mL is reported as at least 200%.

With Fc1ccc2ncc(-c3ccc(OCCOC[C@H]4COCCO4)cc3)n2c1 [Example 87] the activity at 0.1 µg/mL was at least 200%.

Compound Fc1ccc2ncc(-c3ccc(OCCOC[C@@H]4COCCO4)cc3)n2c1 [Example 88] has an activity at 0.1 µg/mL of at least 200%.

Compound N#Cc1ccc2ncc(-c3ccc(OCCOC4COCC4O)cc3)n2c1 (stereo not shown) [Example 91] has an activity at 0.1 µg/mL of at least 200%.

N#Cc1ccc2ncn(-c3ccc(OCCOC[C@H]4COCCO4)cc3)c2c1 [Example 92] gave an activity at 0.1 µg/mL of at least 200%.

With N#Cc1ccc2ncc(-c3ccc(OCCOC[C@H]4COCCO4)cc3)n2c1 [Example 93] the activity at 0.1 µg/mL was at least 200%.

With N#Cc1ccc2ncn(-c3ccc(OCCOC4COCC4O)cc3)c2c1 (stereo not shown) [Example 94] the activity at 0.1 µg/mL was at least 200%.

FC(F)Oc1ccc2ncn(-c3ccc(OCCOC[C@H]4COCCO4)cc3)c2c1 [Example 95] showed an activity at 0.1 µg/mL of at least 200%.

Compound OC1COCC1OCCOc1ccc(-n2cnc3ccc(OC(F)F)cc32)cc1 (stereo not shown) [Example 96] has an activity at 0.1 µg/mL of at least 200%.

In the case of OCCNc1ccc(-n2cnc3ccccc32)cc1 [Example 97], the activity at 0.1 µg/mL is reported as at least 200%.

With c1ccn2c(-c3ccc(OCCOC4CCOCC4)cc3)cnc2c1 [Example 98] the activity at 0.1 µg/mL was at least 200%.

Compound CC(C)(C)OC(=O)NCCOc1ccc(-n2cnc3ccccc32)cc1 [Example 99] has an activity at 0.1 µg/mL of at least 200%.

c1ccc2c(c1)ncn2-c1ccc(OCCOC2CCOCC2)cc1 [Example 100] gave an activity at 0.1 µg/mL of at least 200%.

Compound c1ccc2c(c1)ncn2-c1ccc(NCCOC2CCOCC2)cc1 [Example 101] has an activity at 0.1 µg/mL of at least 200%.

With O=C(c1ccc(-c2ccn3c(-c4ccc(OCCO)cc4)cnc3c2)cc1)N1CCOCC1 [Example 102] the activity at 0.1 µg/mL was at least 200%.

In the case of O=C(c1ccc(-c2ccn3c(N4CCC(OCCO)CC4)cnc3c2)cc1)N1CCOCC1 [Example 103], the activity at 0.1 µg/mL is reported as at least 200%.

Cn1cc(-c2ccn3c(N4CCC(OCCOC5CCOCC5)CC4)cnc3c2)cn1 [Example 104] gave an activity at 0.1 µg/mL of at least 200%.

Work on Cn1cc(-c2ccn3c(N4CCC(OCCO)CC4)cnc3c2)cn1 [Example 105] yielded an activity at 0.1 µg/mL of at least 200%.

For CN(C)C(=O)c1cccc(-c2ccn3c(-c4ccc(OCCO)cc4)cnc3c2)c1 [Example 106], the activity at 0.1 µg/mL was at least 200%.

CN(C)C(=O)c1ccc(-c2ccn3c(N4CCC(OCCO)CC4)cnc3c2)cc1 [Example 107] showed an activity at 0.1 µg/mL of at least 200%.

c1ccn2c(-c3ccc(NCCOC4CCOCC4)cc3)cnc2c1 [Example 109] was tested, and the activity at 0.1 µg/mL was at least 200%.

Compound Fc1ccc2ncc(-c3ccc(OCCO[C@@H]4CCOC4)cc3)n2c1 [Example 110] has an activity at 0.1 µg/mL of at least 200%.

With Fc1ccc2ncc(-c3ccc(NCCOC4CCOCC4)cc3)n2c1 [Example 111] the activity at 0.1 µg/mL was at least 200%.

c1cn(-c2ccc3ncc(-c4ccc(OCCOC5CCOCC5)cc4)n3c2)cn1 [Example 112] showed an activity at 0.1 µg/mL of at least 200%.

With COC1COCC1OCCOc1ccc(-c2cnc3ccc(C#N)cn23)cc1 (stereo not shown) [Example 114] the activity at 0.1 µg/mL was at least 200%.

With OCCOc1ccc(-c2cnc3ccccn23)cc1 [Example 115] the activity at 0.1 µg/mL was at least 200%.

In the case of OCCOc1ccc(-c2cnc3ccc(Cl)cn23)cc1 [Example 116], the activity at 0.1 µg/mL is reported as at least 200%.

OCCOc1ccc(-c2cnn3ccccc23)cc1 [Example 117] showed an activity at 0.1 µg/mL of at least 200%.

With OCCNc1ccc(-c2cnc3ccc(Cl)cn23)cc1 [Example 118] the activity at 0.1 µg/mL was at least 200%.

COc1ccn2c(-c3ccc(NCCO)cc3)cnc2c1 [Example 119] was tested, and the activity at 0.1 µg/mL was at least 200%.

COc1ccn2ncc(-c3ccc(OCCO)cc3)c2c1 [Example 120] gave an activity at 0.1 µg/mL of at least 200%.

In the case of COc1ccn2ncc(-c3ccc(NCCO)cc3)c2c1 [Example 121], the activity at 0.1 µg/mL is reported as at least 200%.

In the case of OCCNc1ccc(-c2cnn3ccccc23)cc1 [Example 122], the activity at 0.1 µg/mL is reported as at least 200%.

With COc1ccc2ncc(-c3ccc(NCCO)cc3)n2c1 [Example 123] the activity at 0.1 µg/mL was at least 200%.

For COc1ccc2ncc(-c3ccc(OCCO)cc3)n2c1 [Example 124], the activity at 0.1 µg/mL was at least 200%.

With COc1ccc2c(-c3ccc(OCCO)cc3)cnn2c1 [Example 125] the activity at 0.1 µg/mL was at least 200%.

With CCOc1ccc2c(-c3ccc(OCCO)cc3)cnn2c1 [Example 126] the activity at 0.1 µg/mL was at least 200%.

In the case of c1cc(-c2ccc3c(-c4ccc(OCCOC5CCOCC5)cc4)cnn3c2)ccn1 [Example 127], the activity at 0.1 µg/mL is reported as at least 200%.

Work on OCCOc1ccc(-n2cnc3cc(-c4ccccn4)ccc32)cc1 [Example 128] yielded an activity at 0.1 µg/mL of at least 200%.

CS(=O)(=O)c1ccc(-c2ccc3c(c2)ncn3-c2ccc(OCCO)cc2)cn1 [Example 129] was tested, and the activity at 0.1 µg/mL was at least 200%.

For O=C(c1ccc(-c2ccc3c(c2)ncn3-c2ccc(OCCO)cc2)nc1)N1CCOCC1 [Example 130], the activity at 0.1 µg/mL was at least 200%.

For Clc1ccc2ncc(-c3ccc(OCCOC4CCOCC4)cc3)n2c1 [Example 131], the activity at 0.1 µg/mL was at least 200%.

In the case of O=C(c1ccc(-c2ccn3c(-c4ccc(NCCOC5CCOCC5)cc4)cnc3c2)nc1)N1CCOCC1 [Example 132], the activity at 0.1 µg/mL is reported as at least 200%.

O=C(c1ccc(-c2ccn3c(-c4ccc(OCCOC5CCOCC5)cc4)cnc3c2)cn1)N1CCOCC1 [Example 133] was tested, and the activity at 0.1 µg/mL was at least 200%.

For CN(C)S(=O)(=O)c1ccc(-c2ccn3c(-c4ccc(OCCO)cc4)cnc3c2)cc1 [Example 134], the activity at 0.1 µg/mL was at least 200%.

Clc1ccc2ncc(-c3ccc(NCCOC4CCOCC4)cc3)n2c1 [Example 135] showed an activity at 0.1 µg/mL of at least 200%.

With Cn1cc(-c2ccc3ncc(-c4ccc(NCCOC5CCOCC5)cc4)n3c2)cn1 [Example 136] the activity at 0.1 µg/mL was at least 200%.

With O=C(C1CC1)N1CCC(OCCNc2ccc(-c3cnc4ccccn34)cc2)CC1 [Example 137] the activity at 0.1 µg/mL was at least 200%.

— US20130029964A1, “[5, 6] HETEROCYCLIC COMPOUND” (DAIICHI SANKYO COMPANY, LIMITED, priority 2010, published 2013)
